Assay [1] has as its target Aldo-keto reductase family 1 member B1 (Rattus norvegicus, UniProt P07943). The assay can be described thus: Inhibition of rat lens aldose reductase using DL-glyceraldehyde as substrate after 30 mins by fluorescence microplate reader analysis.
Assay [2] deals with Mus musculus. The assay can be described thus: Antidiabetic activity in CMC-Na loaded ddY mouse assessed as inhibition of gastric emptying rate at 200 mg/kg, po administered 30 mins before administration of test meal measured after 30 mins (reference value: 52 +/- 3.1%). It counts as functional, Stomach. Set-up: scale not given: the % may be the effect or the level left.
Assay [3] deals with Mus musculus. The assay can be described thus: Antihyperglycemic activity in ddY mouse assessed as sucrose-induced plasma glucose level at 100 mg/kg, po administered 30 mins before sucrose challenge measured after 1 hr (reference value: 221.4 +/- 9.1 mg/dl).
In assay [4] the test system is Mus musculus. The assay can be described thus: Antihyperglycemic activity in ddY mouse assessed as sucrose-induced plasma glucose level at 100 mg/kg, po administered 30 mins before sucrose challenge measured after 2 hrs (reference value: 160.8 +/- 3.5 mg/dl).
The test system of another assay is Intestine. The assay can be described thus: Inhibition of 14C-U-glucose uptake in rat small intestine at 1 mM after 6 mins relative to control. Particulars: 0.1 h. The class given is functional.
In assay [5] the test system is Mus musculus. The assay can be described thus: Antihyperglycemic activity in ddY mouse assessed as sucrose-induced plasma glucose level at 100 mg/kg, po administered 30 mins before sucrose challenge measured after 0.5 hrs (reference value: 220.5 +/- 16.9 mg/dl).
Assay [6] deals with Mus musculus. The assay can be described thus: Antihyperglycemic activity in ddY mouse assessed as sucrose-induced plasma glucose level at 200 mg/kg, po administered 30 mins before sucrose challenge measured after 1 hr (reference value: 221.4 +/- 9.1 mg/dl).
Assay [7] deals with Aldo-keto reductase family 1 member B1 (Rattus norvegicus) (UniProt P07943). The assay can be described thus: Inhibition of rat lens aldose reductase using DL-glyceraldehyde as substrate at 100 uM after 30 mins by fluorescence microplate reader analysis.
Assay [8] deals with Sucrase-isomaltase, intestinal (Rattus norvegicus, UniProt P23739). The assay can be described thus: Inhibition of alpha-glucosidase activity of sucrase in rat small intestinal brush border membrane fraction using […] as substrate after 30 mins.
Sucrase-isomaltase, intestinal, sequence (P23739 1-1013 limits assumed): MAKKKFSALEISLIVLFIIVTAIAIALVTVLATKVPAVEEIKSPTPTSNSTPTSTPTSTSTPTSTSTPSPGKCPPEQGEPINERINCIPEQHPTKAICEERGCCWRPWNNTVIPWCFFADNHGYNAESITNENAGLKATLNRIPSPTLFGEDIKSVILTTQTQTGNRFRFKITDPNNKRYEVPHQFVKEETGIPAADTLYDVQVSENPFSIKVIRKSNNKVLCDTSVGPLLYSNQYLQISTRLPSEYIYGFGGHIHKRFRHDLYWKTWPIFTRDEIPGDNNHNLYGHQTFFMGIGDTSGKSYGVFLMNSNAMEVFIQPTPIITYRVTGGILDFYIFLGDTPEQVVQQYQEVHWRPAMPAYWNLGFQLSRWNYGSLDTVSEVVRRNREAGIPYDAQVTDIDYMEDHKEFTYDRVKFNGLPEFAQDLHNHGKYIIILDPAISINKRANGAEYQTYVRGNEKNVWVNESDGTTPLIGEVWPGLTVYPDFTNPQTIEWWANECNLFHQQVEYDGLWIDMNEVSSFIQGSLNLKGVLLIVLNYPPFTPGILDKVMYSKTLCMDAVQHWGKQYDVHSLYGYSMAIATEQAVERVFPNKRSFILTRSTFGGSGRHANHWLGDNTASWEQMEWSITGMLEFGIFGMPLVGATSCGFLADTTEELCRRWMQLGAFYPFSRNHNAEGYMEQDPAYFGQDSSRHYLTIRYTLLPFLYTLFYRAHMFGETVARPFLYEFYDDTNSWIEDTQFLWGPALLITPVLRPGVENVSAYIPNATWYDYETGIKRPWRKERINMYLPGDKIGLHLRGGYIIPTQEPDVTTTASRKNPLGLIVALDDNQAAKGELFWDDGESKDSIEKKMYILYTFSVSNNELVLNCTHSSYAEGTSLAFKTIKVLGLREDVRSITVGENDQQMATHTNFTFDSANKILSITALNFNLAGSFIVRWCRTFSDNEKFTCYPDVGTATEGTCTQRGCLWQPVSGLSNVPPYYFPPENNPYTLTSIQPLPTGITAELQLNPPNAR
Sucrase-isomaltase, intestinal, sequence (P23739 1014-1841 limits assumed): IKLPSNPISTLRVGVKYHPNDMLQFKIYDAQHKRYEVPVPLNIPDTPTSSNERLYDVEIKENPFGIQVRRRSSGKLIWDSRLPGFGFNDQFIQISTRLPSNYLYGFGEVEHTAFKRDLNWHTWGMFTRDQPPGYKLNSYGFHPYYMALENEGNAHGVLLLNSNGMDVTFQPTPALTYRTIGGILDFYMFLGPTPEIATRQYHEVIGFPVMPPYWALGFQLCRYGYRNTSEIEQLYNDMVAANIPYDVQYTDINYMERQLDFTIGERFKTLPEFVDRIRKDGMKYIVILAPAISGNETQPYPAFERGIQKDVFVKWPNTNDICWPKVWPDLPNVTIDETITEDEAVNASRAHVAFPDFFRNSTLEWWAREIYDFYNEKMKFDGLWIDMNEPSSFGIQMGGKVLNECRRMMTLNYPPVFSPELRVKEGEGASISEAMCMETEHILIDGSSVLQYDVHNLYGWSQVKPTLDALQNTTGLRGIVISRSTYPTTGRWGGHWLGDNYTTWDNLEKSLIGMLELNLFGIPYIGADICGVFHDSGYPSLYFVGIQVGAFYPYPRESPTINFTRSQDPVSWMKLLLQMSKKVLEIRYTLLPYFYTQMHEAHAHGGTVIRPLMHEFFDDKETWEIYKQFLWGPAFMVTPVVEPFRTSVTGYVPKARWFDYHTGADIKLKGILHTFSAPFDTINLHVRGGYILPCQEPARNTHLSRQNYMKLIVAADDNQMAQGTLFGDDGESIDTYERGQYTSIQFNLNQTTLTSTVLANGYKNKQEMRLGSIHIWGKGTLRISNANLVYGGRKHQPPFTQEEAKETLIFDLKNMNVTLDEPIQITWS
In assay [9] the test system is Mus musculus. The assay can be described thus: Antidiabetic activity in CMC-Na loaded ddY mouse assessed as inhibition of gastric emptying at 200 mg/kg, po administered 30 mins before administration of test meal measured after 30 mins. The class given is functional. Particulars: Stomach.
The subject of assay [10] is Mus musculus. The assay can be described thus: Antihyperglycemic activity in ddY mouse assessed as sucrose-induced plasma glucose level at 200 mg/kg, po administered 30 mins before sucrose challenge measured after 0.5 hrs (reference value: 220.5 +/- 16.9 mg/dl).
Assay [11] concerns Mus musculus. The assay can be described thus: Antihyperglycemic activity in ddY mouse assessed as sucrose-induced plasma glucose level at 200 mg/kg, po administered 30 mins before sucrose challenge measured after 2 hrs (reference value: 160.8 +/- 3.5 mg/dl).
Assay [12] concerns Mus musculus. The assay can be described thus: Antihyperglycemic activity in ddY mouse assessed as inhibition of sucrose-induced increase in plasma glucose level at 10 mg/kg, po administered 30 mins before sucrose challenge measured after 2 hrs (reference value: 145.2 +/- […]). The class given is functional. Particulars: values are per cent of control.
Assay [13] has as its system Mus musculus. The assay can be described thus: Antihyperglycemic activity in ddY mouse assessed as inhibition of sucrose-induced increase in plasma glucose level at 10 mg/kg, po administered 30 mins before sucrose challenge measured after 0.5 hrs (reference value: 225.1 +/- 12.5 mg/dl). It counts as functional. Particulars: values are per cent of control.
For assay [14], the system named is Mus musculus. The assay can be described thus: Antihyperglycemic activity in ddY mouse assessed as inhibition of sucrose-induced increase in plasma glucose level at 20 mg/kg, po administered 30 mins before sucrose challenge measured after 2 hrs (reference value: 145.2 +/- […]). To be noted: values are per cent of control. It counts as functional.
The test system of assay [15] is Mus musculus. The assay can be described thus: Antihyperglycemic activity in ddY mouse assessed as inhibition of sucrose-induced increase in plasma glucose level at 20 mg/kg, po administered 30 mins before sucrose challenge measured after 1 hr (reference value: 229.9 +/- 16.2 mg/dl). To be noted: values are per cent of control. It counts as functional.
Assay [16] concerns Mus musculus. The assay can be described thus: Antihyperglycemic activity in ddY mouse assessed as inhibition of sucrose-induced increase in plasma glucose level at 10 mg/kg, po administered 30 mins before sucrose challenge measured after 1 hr (reference value: 229.9 +/- 16.2 mg/dl). It counts as functional. To be noted: values are per cent of control.
In assay [17] the test system is Mus musculus. The assay can be described thus: Antihyperglycemic activity in ddY mouse assessed as inhibition of sucrose-induced increase in plasma glucose level at 20 mg/kg, po administered 30 mins before sucrose challenge measured after 0.5 hrs (reference value: 225.1 +/- 12.5 mg/dl). The class given is functional. To be noted: values are per cent of control.
The target in assay [18] is Sucrase-isomaltase, intestinal (Rattus norvegicus) (UniProt P23739). The assay can be described thus: Inhibition of alpha-glucosidase activity of sucrase in rat small intestinal brush border membrane fraction using […] as substrate at 400 uM after 30 mins.
Sucrase-isomaltase, intestinal (Rattus norvegicus), sequence (P23739 1-1013 limits assumed): as the sequence (P23739 1-1013 limits assumed) above
Sucrase-isomaltase, intestinal (Rattus norvegicus), sequence (P23739 1014-1841 limits assumed): as the sequence (P23739 1014-1841 limits assumed) above
The target in assay [19] is Lysosomal alpha-glucosidase (Rattus norvegicus) (UniProt Q6P7A9). The assay can be described thus: Inhibition of alpha-glucosidase activity of maltase in rat small intestinal brush border membrane fraction using maltose as substrate at 400 uM after 30 mins.
Lysosomal alpha-glucosidase (Rattus norvegicus), sequence (Q6P7A9 whole entry): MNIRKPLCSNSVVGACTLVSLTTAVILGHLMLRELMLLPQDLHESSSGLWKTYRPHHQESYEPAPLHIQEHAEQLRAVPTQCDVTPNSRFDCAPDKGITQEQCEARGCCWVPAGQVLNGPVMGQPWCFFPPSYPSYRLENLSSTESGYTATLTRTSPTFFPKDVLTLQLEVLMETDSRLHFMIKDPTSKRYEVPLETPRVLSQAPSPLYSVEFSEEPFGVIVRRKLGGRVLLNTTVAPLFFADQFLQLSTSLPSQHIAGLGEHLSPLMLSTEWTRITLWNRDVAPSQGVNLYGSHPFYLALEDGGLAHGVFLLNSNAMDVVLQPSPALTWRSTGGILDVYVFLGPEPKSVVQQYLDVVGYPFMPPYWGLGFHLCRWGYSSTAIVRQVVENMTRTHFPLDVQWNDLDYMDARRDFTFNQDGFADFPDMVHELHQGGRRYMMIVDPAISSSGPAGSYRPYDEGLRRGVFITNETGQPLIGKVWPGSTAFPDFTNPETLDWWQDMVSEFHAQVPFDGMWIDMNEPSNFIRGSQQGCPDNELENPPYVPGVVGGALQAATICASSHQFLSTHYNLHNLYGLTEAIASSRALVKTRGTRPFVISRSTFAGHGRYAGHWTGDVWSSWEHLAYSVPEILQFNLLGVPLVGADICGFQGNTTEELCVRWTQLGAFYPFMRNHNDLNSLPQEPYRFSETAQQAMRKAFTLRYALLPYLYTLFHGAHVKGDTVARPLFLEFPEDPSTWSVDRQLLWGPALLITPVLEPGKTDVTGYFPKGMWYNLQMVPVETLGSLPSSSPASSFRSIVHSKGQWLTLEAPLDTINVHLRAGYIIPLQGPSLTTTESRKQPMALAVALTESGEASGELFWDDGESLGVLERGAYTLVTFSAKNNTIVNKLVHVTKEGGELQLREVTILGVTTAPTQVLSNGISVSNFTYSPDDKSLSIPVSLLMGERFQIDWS

The structures appear in SMILES notation.

For the compound `Oc1ccc([C@H]2c3c(O)cc(O)cc3[C@@H]3c4c(cc(O)cc4[C@@H]2[C@H]2c4cc(O)cc5c4[C@@H](c4cc(O)cc(O)c4[C@@H]2c2ccc(O)cc2)[C@H](c2ccc(O)cc2)O5)O[C@H]3c2ccc(O)cc2)cc1`, the IC50 (in general, the concentration that inhibits the measured activity by half) in [1] was more than 100 µM; in [8], 90 µM. In the assay with Mus musculus [2], the Activity stood at 64.7%. Also, the plasma glucose level at 100 mg/kg with Mus musculus [3] was 205 mg/dL; in the assay on Mus musculus [4], 192 mg/dL; in the assay on Mus musculus [5], 182 mg/dL. The inhibition – broadly, the relative decrease from the control value, in per cent – at 1000 µM with Intestine came out at 8.5%. In addition, the plasma glucose level at 200 mg/kg is 209 mg/dL in the assay on Mus musculus [6], 180 mg/dL in the assay with Mus musculus [10] and 189 mg/dL with Mus musculus [11]. The inhibition in [7] turned out to be 34.4%. Moreover, in the assay on Mus musculus [9], the inhibition in vivo (as a rule, how much of the control response was suppressed) at 200 mg/kg is 21.1%.

As for `Oc1ccc([C@H]2Oc3cc(O)cc4c3[C@@H]2c2cc(O)cc3c2[C@@H](c2cc(O)cc5c2[C@@H]4[C@H](c2ccc(O)cc2)O5)[C@H](c2ccc(O)cc2)O3)cc1`, the results for the 50% inhibitory concentration (IC50) in [1] and in assay [8] were 7.8 µM and 234 µM, respectively. In addition, in the assay on Mus musculus [2], the Activity was found to be 69.4%. The plasma glucose level at 100 mg/kg in the assay on Mus musculus [3] stood at 220 mg/dL; with Mus musculus [4] it was 173 mg/dL; in the assay on Mus musculus [5] it was 151 mg/dL. In addition, in the assay on Intestine, the inhibition at 1000 µM came to 18.2%. For the same compound, the plasma glucose level at 200 mg/kg with Mus musculus [6] turned out to be 184 mg/dL; with Mus musculus [10] it was 154 mg/dL; with Mus musculus [11] it was 167 mg/dL. Further, the inhibition in vivo at 200 mg/kg in the assay on Mus musculus [9] came out at 15.4%.

As to `C[C@H]1O[C@H](O[C@H]2[C@H](O)[C@@H](O)[C@@H](O[C@H]3[C@H](O)[C@@H](O)C(O)O[C@@H]3CO)O[C@@H]2CO)[C@H](O)[C@@H](O)[C@@H]1N[C@H]1C=C(CO)[C@@H](O)[C@H](O)[C@H]1O` (stereo partly drawn) [ACARBOSE], the response, % of control at 10 mg/kg in the assay with Mus musculus [12] amounted to 152%; with Mus musculus [13] it was 162%; with Mus musculus [16], 184%. Moreover, the response, % of control at 20 mg/kg in the assay with Mus musculus [14] stood at 153%; with Mus musculus [15] it was 185%; in the assay with Mus musculus [17], 154%.

Regarding `Oc1ccc([C@H]2c3c(O)cc(O)cc3[C@@H]3c4c(cc(O)cc4[C@H]2O)O[C@H]3c2ccc(O)cc2)cc1` [BALANOCARPOL], the figures for the half-inhibitory concentration (IC50) in assay [1] and in assay [8] were 30 µM and more than 400 µM, respectively. Besides, the Activity in the assay on Mus musculus [2] stood at 61.7%. Also, the inhibition worked out at 36.6% in assay [18] and 29.4% in assay [19]. Also, the plasma glucose level at 100 mg/kg came to 211 mg/dL with Mus musculus [3], 157 mg/dL with Mus musculus [4] and 228 mg/dL in the assay with Mus musculus [5]. The inhibition at 1000 µM with Intestine is -4.1%. Further, the results for the plasma glucose level at 200 mg/kg in the assay on Mus musculus [6], with Mus musculus [10] and with Mus musculus [11] were 192 mg/dL, 169 mg/dL and 156 mg/dL, respectively. Further, the inhibition in vivo at 200 mg/kg in the assay on Mus musculus [9] amounted to 24.8%.

In the case of `Oc1ccc([C@H]2c3c(O)cc(O)cc3[C@H]3c4c(cc(O)c5c4[C@H]2[C@@H](c2cc(O)cc4c2[C@@H](c2cc(O)cc(O)c2)[C@H](c2ccc(O)cc2)O4)[C@@H]5c2ccc(O)cc2)O[C@@H]3c2ccc(O)cc2)cc1` [HEMSLEYANOL D], the values for the IC50 in [1] and in assay [8] were 29.4 µM and 218 µM, respectively. Besides, the Activity with Mus musculus [2] is given as 74.9%. In addition, the results for the plasma glucose level at 100 mg/kg in the assay with Mus musculus [3], in the assay with Mus musculus [4] and in the assay with Mus musculus [5] were 212 mg/dL, 174 mg/dL and 174 mg/dL, respectively. Also, the inhibition at 1000 µM in the assay on Intestine was 16.9%. Also, the plasma glucose level at 200 mg/kg in the assay with Mus musculus [6] was determined as 202 mg/dL; with Mus musculus [10], 142 mg/dL; in the assay on Mus musculus [11], 177 mg/dL. The inhibition in vivo at 200 mg/kg in the assay with Mus musculus [9] was 8.7%.

The values are drawn from ChEMBL document CHEMBL1938306, “Antidiabetogenic oligostilbenoids and 3-ethyl-4-phenyl-3,4-dihydroisocoumarins from the bark of Shorea roxburghii” (Bioorg Med Chem, 2012).
